Data reported in PMC7708434 (Biochimica et biophysica acta. General subjects, 2020).

How the values were obtained:
Type in all cases: binding
[1] = target: T1, 4-hydroxy-tetrahydrodipicolinate reductase (MtDapB) (Mycobacterium tuberculosis, UniProt P9WP23); assay: X-ray crystal structure
[2] = target: T2, 4-hydroxy-tetrahydrodipicolinate reductase (VvDapB) (Vibrio vulnificus, UniProt Q8DEM0); assay: X-ray crystal structure
[3] = target: T1, 4-hydroxy-tetrahydrodipicolinate reductase (MtDapB); assay: ITC
[4] = target: T2, 4-hydroxy-tetrahydrodipicolinate reductase (VvDapB); assay: ITC

T2 sequence (Q8DEM0 whole entry): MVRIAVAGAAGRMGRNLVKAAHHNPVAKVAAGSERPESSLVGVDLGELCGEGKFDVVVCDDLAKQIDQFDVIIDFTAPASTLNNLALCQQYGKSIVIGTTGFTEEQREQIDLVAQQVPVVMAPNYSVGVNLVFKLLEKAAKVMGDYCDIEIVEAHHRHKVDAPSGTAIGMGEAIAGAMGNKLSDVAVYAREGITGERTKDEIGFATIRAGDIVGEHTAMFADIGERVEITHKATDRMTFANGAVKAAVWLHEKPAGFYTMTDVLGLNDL
T1 sequence (P9WP23 whole entry): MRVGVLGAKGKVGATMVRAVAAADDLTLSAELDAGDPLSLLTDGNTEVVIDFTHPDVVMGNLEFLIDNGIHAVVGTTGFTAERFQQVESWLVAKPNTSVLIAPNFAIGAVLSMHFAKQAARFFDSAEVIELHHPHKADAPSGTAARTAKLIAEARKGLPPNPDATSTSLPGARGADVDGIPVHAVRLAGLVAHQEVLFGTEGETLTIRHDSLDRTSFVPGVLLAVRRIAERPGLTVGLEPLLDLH

Structure (SMILES)	X-ray crystal structure [1]	X-ray crystal structure [2]	Kd [3]	Kd [4]
NC(=O)c1ccc[n+]([C@@H]2O[C@H](COP(=O)([O-])OP(=O)(O)OC[C@H]3O[C@@H](n4cnc5c(N)ncnc54)[C@H](O)[C@@H]3O)[C@@H](O)[C@H]2O)c1 [NAD+]	apo MtDapB (PDB ID: 5TEK chain A) and NAD^+ bound MtDapB (PDB ID: 5UGV chain A) structures	NADH was used for crystallization, in all cases we observed NAD^+ in the crystal structures		
NC(=O)C1=CN([C@@H]2O[C@H](COP(=O)(O)OP(=O)(O)OC[C@H]3O[C@@H](n4cnc5c(N)ncnc54)[C@H](O)[C@@H]3O)[C@@H](O)[C@H]2O)C=CC1 [NADH]			3.6 ± 0.4 µM	3.9 ± 1.2 µM
